Results taken from patent US9957226B2, “Antimicrobial compounds” (AKTHELIA PHARMACEUTICALS, priority 2013, dated 2018).
Entries after “also recorded” stand apart in the source; their conditions may differ. Like-named read-outs stand apart in the source and are kept apart here.

Assays:
CAMP gene [1] = assay: Fold induction assay in the MN8CampLuc reporter cell line (luciferase coupled to CAMP gene); assay type: cell-based, human; conditions: for Fold induction (as luciferase activity): cells pre-differentiated by treatment with galactose, FIG. 4 and FIG. 5
Description: MN8CampLuc cells were handled according to Nylen et. al. with the following exception when predifferention of cells were performed before induction: […]

LC3 = assay: Immunofluorescence of LC3 in HEK-293 cells; assay type: cell-based; conditions: 10 μM, 24 hrs, FIG. 9 lower panel
Description: (§1) RT-PCR experiments for expression of marker genes for autophagy in HEK-293 cells were measured by real-time PCR. Data were normalized by the expression of the 18s rRNA housekeeping gene. For the immunofluorescence spectroscopy experiments HEK-293 cells were fixed after treatment with the inducers or control. The cells were then stained with DAPI to visualize the nuclei (blue), and immunolabeled with the anti-LC3, followed by the addition of Alexa-fluor 488 (green). Scale bar=10 μm.

[2] = tested on: autophagy-related genes Beclin-1 and AtgS; assay: RT-PCR of autophagy marker genes in HEK-293 cells; assay type: cell-based; conditions: for Expression of autophagy-related genes Beclin-1 and AtgS: 24 hrs, PBA 2 mM, compound 5 10 μM, Rapamycin 100 nM, FIG. 9 upper panel
Description: as §1

CAMP gene [3] = assay: RT-PCR of CAMP gene expression in parental HT-29 cell line; assay type: cell-based, human
Description: RT-PCR experiments were performed according to Nylen et. al. (Nylén F, Miraglia E, Cederlund A, Ottosson H, Stromberg R, Gudmundsson G H, Agerberth B. 2013. Boosting innate immunity: Development and validation of a cell-based screening assay to identify LL-37 inducers. Innate Immun.).

histone deacetylases = conditions: average of assays reported in PubChem, FIG. 4 right panel; cited from earlier work
[4] = MN8CampLuc reporter cell line, FIG. 6
[5] = MN8CampLuc reporter cell line, FIG. 2

With `Nc1ccccc1NC(=O)c1ccccc1` [Compound 1, N-(2-Aminophenyl)benzamide] the “Concentration required for induction” value (CAMP gene [1]; MN8CampLuc, FIG. 2) was “slightly higher concentration”.
For `COc1ccc(C(=O)Nc2ccccc2N)cc1` [Compound 2, N-(2-Aminophenyl)-4-methoxybenzamide], the “Concentration required for induction” value (CAMP gene [1]; MN8CampLuc, FIG. 2) was “slightly higher concentration”.
With `Nc1ccccc1NC(=O)c1ccc(CNC(=O)OCc2ccccc2)cc1` [Compound 4, Benzyl (4-((2-aminophenyl)carbamoyl)-benzyl)carbamate] the “Concentration required for induction” value (CAMP gene [1]; MN8CampLuc, FIG. 2) was “slightly higher concentration”.
In the case of `Nc1ccccc1NC(=O)c1ccc(CNC(=O)OCc2cccnc2)cc1` [Compound 5, Pyridin-3-ylmethyl (4-((2-aminophenyl)-carbamoyl)benzyl)carbamate], the “LC3 expression in its membrane form (LC3-II)” value (LC3) is reported as “upregulate”, the “Induction in combination with VitD” value (CAMP gene [1]; [4]) is reported as “synergistic effect; also recorded: Synergism with Vitamin D” and the “Induction on co-incubation with PBA (13)” value (CAMP gene [1]; [4]) is reported as “reduces entinostat-elicited induction”. For the same molecule, the “Inducing concentration lower than that of PBA” value (CAMP gene [1]; MN8CampLuc, 0.625-5 μM vs PBA 2-4 mM) was “about 3 orders of magnitude”, the “Concentration required for induction” value (CAMP gene [1]; MN8CampLuc, FIG. 2) was “lowest concentration; also recorded: effective already at μM concentrations” and the “Induction compared with PBA (13) at 2-4 mM” value (CAMP gene [1]; MN8CampLuc, compound 5 at 0.625-5 μM, FIG. 2) was “considerably higher”. The “Expression of autophagy-related genes Beclin-1 and AtgS” value [2] was “increased expression”, the “Expression of autophagy-related genes Beclin-1 and AtgS” value ([2]; listed as Entinostat) was “upregulate the expression” and the Autophagy ([2]; marker genes and LC-3, FIG. 9) was “induce autophagy; also recorded: stimulates autophagy”. For the same molecule, the “Induction of the CAMP gene at mRNA level (RT-PCR)” value (CAMP gene [3]; HT29 parental cells, FIG. 7) was “induces the CAMP gene; also recorded: enhanced transcription of the CAMP gene”, the “Induction of the CAMP gene at mRNA level in combination with Vitamin D” value (CAMP gene [3]; HT29 parental cells, FIG. 7) was “synergy with Vitamin D; also recorded: synergism with Vitamin D” and the “CAMP gene expression (mRNA), time course” value (CAMP gene [3]; HT-29 cells, 4 and 8 h, FIG. 8) was “did not induce”. For the same molecule, the “CAMP gene expression (mRNA), time course” value (CAMP gene [3]; HT-29 cells, 24 and 48 h, FIG. 8) was “induction was prominent”.
In the case of `COC(=O)Cn1cc(C(=O)NCc2ccc(C(=O)Nc3ccccc3N)cc2)nn1` [Compound 6, Methyl 2-(4-((4-((2-aminophenyl)carbamoyl)benzyl)carbamoyl)-1 H-1,2,3-triazol-1-yl)acetate], the “Concentration required for induction” value (CAMP gene [1]; MN8CampLuc, FIG. 2) is reported as “slightly higher concentration”.
With `CN(C)c1ccc(NC(=O)CCCC(=O)Nc2ccccc2N)cc1` [Compound 9, N^1-(2-aminophenyl)-N^5-(4-(dimethylamino)-phenyl)glutaramide] the “Fold induction of the CAMP gene (LL-37-luciferase)” value (from here on “Fold induction … (LL-37-luciferase)”) (CAMP gene [1]; [5]) was “at a cost of inducing ability”.
For `O=C(NCc1ccc(C(=O)O)cc1)OCc1cccnc1` [Compound 11, 4-((((pyridin-3-ylmethoxy)carbonyl)amino)methyl)benzoic acid], the “Fold induction … (LL-37-luciferase)” value (CAMP gene [1]; [5]) was “virtually no induction; also recorded: complete inactivity”.
For `O=C(CCCCCCC(=O)Nc1ccccc1)NO` [Compound 12, N1-hydroxy-N8-phenyloctanediamide], the “Fold induction (as luciferase activity)” value (CAMP gene [1]; MN8CampLuc) was “much less fold induction than compound 5” and the “Fold induction of the CAMP gene” value (CAMP gene [1]; MN8CampLuc, with and without pre-differentiation of cells by galactose, FIG. 3) was “little induction; also recorded: poor inducer”.
In the case of `O=C(Nc1ccccc1O)c1ccccc1` [Compound 14, N-(2-Hydroxyphenyl) benzamide], the “Fold induction … (LL-37-luciferase)” value (CAMP gene [1]; [5]) is reported as “virtually no induction; also recorded: complete or significant loss of the induction ability”.
In the case of `COc1ccccc1NC(=O)c1ccccc1` [Compound 15, N-(2-methoxyphenyl)benzamide], the “Fold induction … (LL-37-luciferase)” value (CAMP gene [1]; [5]) is reported as “virtually no induction; also recorded: complete or significant loss of the induction ability”.
In the case of `COc1ccc(CNc2ccccc2N)cc1` [Compound 16, N-(4-Methoxybenzyl)-1,2-benzenediamine], the “Fold induction (as luciferase activity)” value (CAMP gene [1]; MN8CampLuc) is reported as “at a cost of inducing ability”.
With `NCCNC(=O)c1ccccc1` [Compound 17, N-(2-aminoethyl)-benzamide] the “Fold induction (as luciferase activity)” value (CAMP gene [1]; MN8CampLuc) was “abolition of induction; also recorded: complete or significant loss of the induction ability”.
With `COc1ccc(C(=O)NCCN)cc1` [Compound 18, N-(2-aminoethyl)-4-methoxybenzamide] the “Fold induction (as luciferase activity)” value (CAMP gene [1]; MN8CampLuc) was “abolition of induction; also recorded: complete or significant loss of the induction ability”.
In the case of `CC(/C=C/C(=O)NO)=C\[C@@H](C)C(=O)c1ccc(N(C)C)cc1` [Compound 19, Trichostatin A], the “Fold induction (as luciferase activity)” value (CAMP gene [1]; MN8CampLuc) is listed as “much less fold induction than compound 5” and the “HDAC inhibition (known IC50 values) compared with compound 5” value (histone deacetylases) is listed as “considerably more powerful HDAC inhibitors”.
In the case of Phenylbutyrate [Compound 13], the “Fold induction … (LL-37-luciferase)” value (CAMP gene [1]) is reported as “considerably lower induction”, the “Expression of autophagy-related genes Beclin-1 and AtgS” value [2] is reported as “increased expression” and the “CAMP gene expression (mRNA), course over time” value (CAMP gene [3]; HT-29 cells, FIG. 8) is reported as “gradual increase of the CAMP gene expression”.
